Test results reported in patent publication US10626112B2, “Heterocyclic sulfonamide derivative and medicine comprising same” (EA PHARMA CO., LTD., priority 2014, dated 2020).
pIC50: −log10 of the molar value.

Target: human TRPA1 (Homo sapiens (Human), UniProt O75762)
Assay: Measurement of TRPA1 antagonist activity (1): intracellular calcium increase
Assay type: cell-based
Settings: 293T cells transfected with human TRPA1 expression plasmid; allylisothiocyanate 20 μM stimulation; intracellular calcium fluorescence; read-out: hTRPA1 IC50
Method in brief: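 Calcium-flux readout of TRPA1 block: compound given 10 min before 20 μM (final) allylisothiocyanate, fluorescence tracked 5 min. Cells were 293T transiently expressing human TRPA1, dye-loaded 1 hr in HBSS, 20 mM HEPES, pH 7.2. Inhibition scaled between agonist-only and buffer-only responses; IC50 by sigmoid fitting.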

Sequence of human TRPA1 (O75762 whole entry): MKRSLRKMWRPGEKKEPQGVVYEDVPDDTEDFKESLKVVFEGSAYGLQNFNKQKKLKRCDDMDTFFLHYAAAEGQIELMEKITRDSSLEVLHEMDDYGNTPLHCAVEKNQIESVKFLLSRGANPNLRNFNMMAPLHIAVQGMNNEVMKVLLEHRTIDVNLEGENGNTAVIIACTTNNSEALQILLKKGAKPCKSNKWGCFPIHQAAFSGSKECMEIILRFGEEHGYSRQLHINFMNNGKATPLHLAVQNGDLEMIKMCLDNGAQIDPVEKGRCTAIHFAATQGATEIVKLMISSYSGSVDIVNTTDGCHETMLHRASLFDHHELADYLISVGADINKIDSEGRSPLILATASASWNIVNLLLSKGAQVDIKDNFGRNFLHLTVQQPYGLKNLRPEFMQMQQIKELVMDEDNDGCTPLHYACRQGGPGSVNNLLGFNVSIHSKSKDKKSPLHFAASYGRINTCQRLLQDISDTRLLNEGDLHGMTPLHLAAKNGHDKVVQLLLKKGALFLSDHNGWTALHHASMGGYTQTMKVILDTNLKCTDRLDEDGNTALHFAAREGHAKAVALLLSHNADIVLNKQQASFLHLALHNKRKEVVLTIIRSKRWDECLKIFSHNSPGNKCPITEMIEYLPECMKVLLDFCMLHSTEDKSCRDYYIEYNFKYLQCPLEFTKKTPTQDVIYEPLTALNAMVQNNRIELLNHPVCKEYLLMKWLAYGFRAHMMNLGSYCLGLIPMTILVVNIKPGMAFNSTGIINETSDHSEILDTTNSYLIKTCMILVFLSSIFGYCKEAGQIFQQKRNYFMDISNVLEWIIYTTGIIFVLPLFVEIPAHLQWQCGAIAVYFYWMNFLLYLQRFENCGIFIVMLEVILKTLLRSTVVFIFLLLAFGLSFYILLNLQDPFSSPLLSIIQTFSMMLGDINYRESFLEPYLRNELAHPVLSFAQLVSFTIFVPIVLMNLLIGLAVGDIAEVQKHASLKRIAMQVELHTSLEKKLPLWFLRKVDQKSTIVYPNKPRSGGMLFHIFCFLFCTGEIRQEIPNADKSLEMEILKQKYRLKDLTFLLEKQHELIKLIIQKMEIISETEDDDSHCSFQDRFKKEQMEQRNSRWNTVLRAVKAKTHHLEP

SMILES	pIC50
O=C(NCc1cccc(OCc2ccc(C(F)(F)F)cc2)c1)[C@@H]1CCN1S(=O)(=O)c1cc2ccccc2o1 [Example 48, (2S)-1-(benzofuran-2-ylsulfonyl)-N-[[3-[[4-(trifluoromethyl)phenyl]methoxy]-phenyl]methyl]azetidine-2-carboxamide]	8.16
Cc1ccc(COc2cccc(CNC(=O)[C@@H]3CCCN3S(=O)(=O)c3cc4cc(F)ccc4o3)c2)cn1 [Example 19, (2S)-1-(5-fluorobenzofuran-2-yl)sulfonyl-N-[[3-[(6-methyl-3-pyridyl)methoxy]phenyl]-methyl]pyrrolidine-2-carboxamide]	7.85
COc1ccc(-c2cc(CNC(=O)[C@@H]3CCCN3S(=O)(=O)c3cc4cc(F)ccc4o3)ccn2)cc1 [Example 131, (2S)-1-(5-fluorobenzofuran-2-yl)sulfonyl-N-[[2-(4-methoxyphenyl)-4-pyridyl]methyl]pyrrolidine-2-carboxamide]	7.49
O=C(NCc1cccc(OCc2ccccc2)c1)[C@@H]1CCCN1S(=O)(=O)c1cc2cnccc2o1 [Example 267, (2S)-N-[(3-benzyloxyphenyl)methyl]-1-furo[3,2-c]pyridin-2-ylsulfonyl-pyrrolidine-2-carboxamide]	8.19
O=C(NCc1ccc(-c2cccc(F)c2)cc1)[C@@H]1CCCN1S(=O)(=O)c1cc2ccccc2o1 [Example 169, (2S)-1-(benzofuran-2-ylsulfonyl)-N-[[4-(3-fluorophenyl)phenyl]methyl]-pyrrolidine-2-carboxamide]	6.82
N#Cc1ccc(-c2cc(CNC(=O)[C@@H]3CCCN3S(=O)(=O)c3cc4ccccc4o3)ccn2)cc1 [Example 117, (2S)-1-(benzofuran-2-ylsulfonyl)-N-[[2-(4-cyanophenyl)-4-pyridyl]methyl]pyrrolidine-2-carboxamide]	7.85
C[C@H](NS(=O)(=O)c1cc2cc(F)ccc2o1)C(=O)NCc1cccc(-c2ncc(C(F)(F)F)cn2)c1 [Example 232, (2S)-2-[(5-fluorobenzofuran-2-yl)sulfonylamino]-N-[[3-[5-(trifluoromethyl)pyrimidin-2-yl]phenyl]methyl]propanamide]	7.11
CC(C)(C)OC(=O)c1ccc(CNC(=O)[C@@H]2CCCN2S(=O)(=O)c2cc3ccccc3o2)cc1-c1ccc(C(F)(F)F)cc1 [Example 336, tert-butyl 4-[[[(2S)-1-(benzofuran-2-ylsulfonyl)pyrrolidine-2-carbonyl]amino]methyl]-2-[4-(trifluoromethyl)phenyl]-benzoate]	8.24
O=C(NCc1cccc(-c2cnc(C(F)(F)F)nc2)c1)[C@@H]1CCCN1S(=O)(=O)c1cc2ccccc2o1 [Example 195, (2S)-1-(benzofuran-2-ylsulfonyl)-N-[[3-[2-(trifluoromethyl)pyrimidin-5-yl]phenyl]-methyl]pyrrolidine-2-carboxamide]	8.60
O=C(NCc1cccc(Cl)c1)[C@@H]1CCCN1S(=O)(=O)c1cc2ccccc2o1 [Example 60, (2S)-1-(benzofuran-2-ylsulfonyl)-N-[(3-chlorophenyl)methyl]pyrrolidine-2-carboxamide]	6.70
C[C@H](NS(=O)(=O)c1cc2cc(F)ccc2o1)C(=O)NCc1cc(-c2ncc(C(F)(F)F)cn2)ccn1 [Example 242, (2S)-2-[(5-fluorobenzofuran-2-yl)sulfonylamino]-N-[[4-[5-(trifluoromethyl)pyrimidin-2-yl]-2-pyridyl]methyl]propanamide]	6.80
O=C(NCc1cccc(OC(F)(F)F)c1)[C@@H]1CCCN1S(=O)(=O)c1cc2ccccc2o1 [Example 62, (2S)-1-(benzofuran-2-ylsulfonyl)-N-[[3-(trifluoromethoxy)phenyl]methyl]-pyrrolidine-2-carboxamide]	7.22
C[C@H](NS(=O)(=O)c1cc2ccccc2o1)C(=O)NCc1cccc(OCC2CCOCC2)c1 [Example 183, (2S)-2-(benzofuran-2-ylsulfonylamino)-N-[[3-(tetrahydropyran-4-ylmethoxy)phenyl]methyl]propanamide]	6.24
O=C(NCc1cc(-c2ccc(C(F)(F)F)cn2)ccn1)[C@@H]1[C@@H](O)CCN1S(=O)(=O)c1cc2ccccc2o1 [Example 227, (2S,3S)-1-(benzofuran-2-ylsulfonyl)-3-hydroxy-N-[[4-[5-(trifluoromethyl)-2-pyridyl]-2-pyridyl]methyl]pyrrolidine-2-carboxamide]	7.38
O=C(NCc1cc(-c2ccc(C(F)(F)F)cn2)ccn1)[C@@H]1[C@H]2C[C@H]2CN1S(=O)(=O)c1cc2cc(F)ccc2o1 [Example 257, (1R,4S,5S)-3-(5-fluorobenzofuran-2-yl)sulfonyl-N-[[4-[5-(trifluoromethyl)-2-pyridyl]-2-pyridyl]methyl]-3-azabicyclo[3.1.0]hexane-4-carboxamide]	7.19
O=C(NCc1cccc(/C=C/c2ccc(C(F)(F)F)cc2)c1)[C@@H]1CCCN1S(=O)(=O)c1cc2ccccc2o1 [Example 317, (2S)-1-(benzofuran-2-ylsulfonyl)-N-[[3-[(E)-2-[4-(trifluoromethyl)phenyl]vinyl]phenyl]methyl]pyrrolidine-2-carboxamide]	7.51

SMILES	pIC50
O=C(NCc1cc(-c2ccc(C(F)(F)F)nn2)ccn1)[C@@H]1CCCN1S(=O)(=O)c1cc2ccccc2o1 [Example 202, (2S)-1-(benzofuran-2-ylsulfonyl)-N-[[4-[6-(trifluoromethyl)pyridazin-3-yl]-2-pyridyl]methyl]pyrrolidine-2-carboxamide]	8.37
O=C(NCc1ccnc(-c2ccc(C(F)(F)F)cc2)c1)[C@@H]1CCCN1S(=O)(=O)c1cc2c(F)cccc2o1 [Example 97, (2S)-1-(4-fluorobenzofuran-2-yl)sulfonyl-N-[[2-[4-(trifluoromethyl)phenyl]-4-pyridyl]methyl]pyrrolidine-2-carboxamide]	8.40
O=C(NCc1ccnc(-c2ccc(C(F)(F)F)cc2)c1)[C@@H]1CC(F)(F)CN1S(=O)(=O)c1cc2cc(F)ccc2o1 [Example 99, (2S)-4,4-difluoro-1-(5-fluorobenzofuran-2-yl)sulfonyl-N-[[2-[4-(trifluoromethyl)phenyl]-4-pyridyl]methyl]pyrrolidine-2-carboxamide]	7.89
O=C(NCc1cccc(OC(F)(F)F)c1)[C@@H]1CCCN1S(=O)(=O)c1cc2cc(F)ccc2o1 [Example 65, (2S)-1-(5-fluorobenzofuran-2-yl)sulfonyl-N-[[3-(trifluoromethoxy)phenyl]methyl]-pyrrolidine-2-carboxamide]	7.82
O=C(NCc1cc(-c2ccc(C(F)(F)F)cc2)nc(OCc2ccccc2)n1)[C@@H]1CCCN1S(=O)(=O)c1cc2ccccc2o1 [Example 327, (2S)-1-(benzofuran-2-ylsulfonyl)-N-[[2-benzyloxy-6-[4-(trifluoromethyl)phenyl]pyrimidin-4-yl]methyl]pyrrolidine-2-carboxamide]	8.37
O=C(NCc1cc(-c2ccc(C(F)(F)F)cn2)ccn1)[C@@H]1CCCCN1S(=O)(=O)c1cc2cc(F)ccc2o1 [Example 261, (2S)-1-(5-fluorobenzofuran-2-yl)sulfonyl-N-[[4-[5-(trifluoromethyl)-2-pyridyl]-2-pyridyl]methyl]piperidine-2-carboxamide]	7.43
C[C@H](NC(=O)[C@@H]1CCCN1S(=O)(=O)c1cc2ccccc2o1)c1cccc(-c2ccc(C(F)(F)F)nc2)c1 [Example 287, (2S)-1-(benzofuran-2-ylsulfonyl)-N-[(1S)-1-[3-[6-(trifluoromethyl)-3-pyridyl]phenyl]ethyl]pyrrolidine-2-carboxamide]	8.10
O=C(NCc1cc(-c2ccc(C(F)(F)F)nc2)ccn1)[C@@H]1CCCN1S(=O)(=O)c1cc2cc(F)ccc2o1 [Example 149, (2S)-1-(5-fluorobenzofuran-2-yl)sulfonyl-N-[[4-[6-(trifluoromethyl)-3-pyridyl]-2-pyridyl]methyl]pyrrolidine-2-carboxamide]	8.82
N#Cc1ccc(-c2cc(CNC(=S)[C@@H]3CCCN3S(=O)(=O)c3cc4ccccc4o3)ccn2)cc1 [Example 293, (2S)-1-(benzofuran-2-ylsulfonyl)-N-[[2-(4-cyanophenyl)-4-pyridyl]methyl]pyrrolidine-2-carbothioamide]	8.51
O=C(NCc1ccc(OC(F)(F)F)cc1)[C@@H]1CCCN1S(=O)(=O)c1cc2ccccc2o1 [Example 63, (2S)-1-(benzofuran-2-ylsulfonyl)-N-[[4-(trifluoromethoxy)phenyl]methyl]-pyrrolidine-2-carboxamide]	7.22
O=C(NCc1cccc(-c2ccc(C(F)(F)F)nc2)c1)[C@@H]1CCCN1S(=O)(=O)c1cc2cc(F)ccc2o1 [Example 88, (2S)-1-(5-fluorobenzofuran-2-yl)sulfonyl-N-[[3-[6-(trifluoromethyl)-3-pyridyl]phenyl]methyl]pyrrolidine-2-carboxamide]	9.39
O=C(NCc1cccc(OCc2ccc(C(F)(F)F)nc2)c1)[C@@H]1CCCN1S(=O)(=O)c1cc2ccccc2o1 [Example 8, (2S)-1-(benzofuran-2-ylsulfonyl)-N-[[3-[[6-(trifluoromethyl)-3-pyridyl]methoxy]phenyl]-methyl]pyrrolidine-2-carboxamide]	8.21
O=C(NCc1cccc(OCc2cccc(OCCN3CCOCC3)c2)c1)[C@@H]1CCCN1S(=O)(=O)c1cc2cc(F)ccc2o1 [Example 28, (2S)-1-(5-fluorobenzofuran-2-yl)sulfonyl-N-[[3-[[3-(2-morpholinoethoxy)phenyl]-methoxy]phenyl]methyl]-pyrrolidine-2-carboxamide]	7.25
O=C(NCc1cccc(OCc2ccncc2)c1)[C@@H]1CCCN1S(=O)(=O)c1cc2cc(F)ccc2o1 [Example 13, (2S)-1-(5-fluorobenzofuran-2-yl)sulfonyl-N-[[3-(4-pyridylmethoxy)phenyl]methyl]pyrrolidine-2-carboxamide]	7.72
CC(C)(C)c1ccc(-c2ccnc(CNC(=O)[C@@H]3CCCN3S(=O)(=O)c3cc4ccccc4o3)c2)cc1 [Example 285, (2S)-1-(benzofuran-2-ylsulfonyl)-N-[[4-(4-tert-butylphenyl)-2-pyridyl]methyl]pyrrolidine-2-carboxamide]	7.52
